{"source": "patent US10098897B2", "about": "“Methods and materials for reducing development of stenosis of arteriovenous fistulas” (Mayo Foundation for Medical Education and Research, priority 2014, dated 2018)", "system": "Iex-1", "experiment": "Iex-1 gene expression by qRT-PCR in hypoxic NIH 3T3 fibroblasts", "format": "cell-based, mouse", "excerpt": "To determine the expression of Iex-1 and Vegf-A in vitro, NIH 3T3 cells (ATCC, Manassas, Va.) were used and subjected to hypoxia and normoxia for different lengths of time as described elsewhere (Yang et al., Kidney Int., 85:289-306 (2014) and Janardhanan et al., Kidney Int., 84:338-52 (2013)). Cells were harvested for qRT-PCR analysis.\nCells or tissue were stored in a RNA stabilizing/cell lysis solution (Qiagen, Gaithersburg, Md.) (Yang et al., Kidney Int., 85:289-306 (2014) and Janardhanan et al., Kidney Int., 84:338-52 (2013)). Specimens were homogenized, and total RNA was extracted and isolated via the miRNEasy Mini kit (Qiagen). Culture cells were trypsinized and stored in Qiazol lysis regent and processed using the RNEasy Mini kit.\nGene expression was quantified using qRT-PCR as described elsewhere (Yang et al., Kidney Int., 85:289-306 (2014) and Janardhanan et al., Kidney Int., 84:338-52 (2013))."}
{"compound": "C=C1/C(=C\\C=C2/CCC[C@]3(C)[C@@H]([C@H](C)CCCC(C)(C)O)CC[C@@H]23)C[C@@H](O)C[C@@H]1O", "note": "[calcitriol]", "values": [{"measurement": "average decrease in Iex-1 expression vs. controls", "setting": "1 μM calcitriol, hypoxic fibroblasts, 24 hours, control PBS alone", "result": 56, "unit": "%"}, {"measurement": "average Iex-1 expression (qRT-PCR)", "setting": "1 μM calcitriol, hypoxic fibroblasts, 24 hours, control 8.62+1.52", "result": "3.84+2.2"}, {"measurement": "optimal dose of calcitriol required to reduce Iex-1 expression", "setting": "determined using a dose response curve", "result": 1, "unit": "µM"}]}
